Source: US20110294861A1, “METHOD OF TREATMENT OF HEREDITARY HEMOCHROMATOSIS” (NOVARTIS AG, priority 2006, published 2011)

Columns and labels:
[1] = Plasma half life within the human body; format: in vivo
[2] = Exposure of Compound I in mice compared with human studies; format: in vivo; settings: mice versus human studies
HJV−/− mice = assay: Iron overload in a murine model of juvenile hemochromatosis (organ iron by ICP-OES); format: in vivo
Description: Compound I, a novel tridentate oral iron chelator, is effective in the treatment of patients with transfusional iron overload and it has not been investigated in primary iron overload. We sought to examine spontaneous iron loading and the effect of Compound I upon the removal of iron in HJV−/− mice with iron overload.
Methods: Inductively-Coupled Plasma Optical Emission Spectrometry (ICP-OES, measurement of elemental iron) determinations in liver, heart, spleen and pancreas were performed at week 8 (study start), 14, 20 and 28 in HJV−/− and wild type (wt) mice (n=6-8), subsequent to MRI measurements in heart and liver. Starting at week 20 three groups of HJV−/− animals received daily 0 (vehicle), 30 or 100 mg/kg Compound I, control wt-mice remained untreated. Iron loading was observed up to 28 weeks (including vehicle group) and the effects of Compound I were assessed by comparing the 28-week groups. MRI R2* measurements were performed using a 4.7T MR imager. For the myocardial and hepatic R2* assessments single slice, ECG gated gradient echo images and single slice transversal gradient echo images were acquired, respectively.

[3] = subcutaneous, 3 patients with HH; compared with weekly phlebotomy, e.g. 500 ml; cited from earlier work
[4] = in vivo; cited from earlier work
[5] = 100 mg/kg daily, week 20 to 28, HJV−/− mice, ICP-OES
[6] = hemojuvelin knock out mouse, within 8 weeks of treatment (conclusion)

SMILES	half-life [1] [min]	lower exposure in mice [2]	effects on organ iron load (HJV−/− mice; 30 mg/kg daily, HJV−/− mice)	effects on organ iron load in liver and heart (HJV−/− mice; 100 mg/kg daily, HJV−/− mice)	pancreas iron (HJV−/− mice; 100 mg/kg daily, HJV−/− mice)	heart iron reduced as compared to the (HJV−/−)-vehicle treated group (HJV−/− mice; [5]) [%]	liver iron reduced as compared to the (HJV−/−)-vehicle treated group (HJV−/− mice; [5]) [%]	liver and heart iron (HJV−/− mice; [6])	pancreatic iron load (HJV−/− mice; [6])	effectiveness of treatment of iron overload [3]	half life within the bloodstream [4]
O=C(O)c1ccc(-n2nc(-c3ccccc3O)nc2-c2ccccc2O)cc1 [Compound I, 4-[3,5-bis(2-hydroxyphenyl)-[1,2,4]triazol-1-yl]benzoic acid]	480 to 960	6-9 times	modest	quite pronounced	clear trend to lower levels	41	63	significantly reduced	trend to improvement	–	–
CC(=O)N(O)CCCCCNC(=O)CCC(=O)N(O)CCCCCNC(=O)CCC(=O)N(O)CCCCCN [DFO, desferrioxamine]	–	–	–	–	–	–	–	–	–	as effective as weekly phlebotomy	short
